Patent US20240415923A1, “RNA-Dependent RNA Polymerase Inhibitory Compounds, Uses in Managing Viral Infections, and Pharmaceutical Compositions” (priority 2023, published 2024)
Where a name gives a salt, the structure may show the parent alone. Starred links: 1 amine or outer side, 2 acyl side, 3 side chain; linkers in the order of their positions; H or OH if unused. Positions of bridges follow the written chain, without caps; N, C: chain ends. Non-standard residues stand in square brackets, D forms with d. Residues, ends and D or L forms follow the SMILES beside them. *: point of attachment. hTyr(3S-OH,4S-OH,3'-OSO3H) = N[C@H](C(=O)O)[C@H](O)[C@@H](O)c1ccc(O)c(OS(=O)(=O)O)c1; Orn(4R-OH,5R-OH) = O=C([C@H](C[C@@H](O)[C@@H](O)N[*:3])N[*:1])[*:2]; Pro(3S-OH,4S-Me) = C[C@H]1CN[C@H](C(=O)O)[C@H]1O; X1 = CCCCCOc1ccc(-c2cc(-c3ccc(C(=O)*)cc3)no2)cc1; Gln(3R-OH) = NC(=O)C[C@@H](O)[C@H](N)C(=O)O; Hyp = O=C(O)[C@@H]1C[C@@H](O)CN1

Legend:
[1] = biological target: T1, RSV polymerase (L-P) (Human respiratory syncytial virus A, UniProt P28887); assay: in vitro de novo RNA synthesis assay, TrC12 template; type: biochemical
[2] = biological target: NiV polymerase (L-P) (Nipah virus, UniProt Q997F0); type: biochemical; details: 1 mM
[3] = biological target: VSV polymerase (L-P1-106) (Vesicular stomatitis Indiana virus, UniProt P03523); type: biochemical; details: 1 mM
[4] = biological target: T2, SARS-COV2 polymerase (Nsp7-Nsp8-Nsp12) (Severe acute respiratory syndrome coronavirus 2, UniProt P0DTD1); type: biochemical, severe acute respiratory syndrome coronavirus 2 (SARS-COV2); details: 1 mM
T2 construct: SARS-COV2 polymerase (Nsp7-Nsp8-Nsp12); made in house

[5] = test system: VSBV polymerase (L-P); type: biochemical, variegated squirrel bornavirus (VSBV); details: 1 mM
[6] = biological target: T1, RSV polymerase (L-P); assay: in vitro primer-based RNA synthesis assay, TrC12 template and Tr4 primer; type: biochemical; details: 1 mM, TrC12 template, FIG. 3B

T1 sequence (P03421 whole entry): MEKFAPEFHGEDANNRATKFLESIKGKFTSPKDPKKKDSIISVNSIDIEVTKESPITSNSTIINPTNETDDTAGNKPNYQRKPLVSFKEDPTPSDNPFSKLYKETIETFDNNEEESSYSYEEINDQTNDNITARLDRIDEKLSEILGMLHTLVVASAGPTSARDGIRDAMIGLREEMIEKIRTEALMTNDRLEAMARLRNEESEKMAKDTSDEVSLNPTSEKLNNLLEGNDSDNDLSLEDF
T1 sequence (P28887 whole entry): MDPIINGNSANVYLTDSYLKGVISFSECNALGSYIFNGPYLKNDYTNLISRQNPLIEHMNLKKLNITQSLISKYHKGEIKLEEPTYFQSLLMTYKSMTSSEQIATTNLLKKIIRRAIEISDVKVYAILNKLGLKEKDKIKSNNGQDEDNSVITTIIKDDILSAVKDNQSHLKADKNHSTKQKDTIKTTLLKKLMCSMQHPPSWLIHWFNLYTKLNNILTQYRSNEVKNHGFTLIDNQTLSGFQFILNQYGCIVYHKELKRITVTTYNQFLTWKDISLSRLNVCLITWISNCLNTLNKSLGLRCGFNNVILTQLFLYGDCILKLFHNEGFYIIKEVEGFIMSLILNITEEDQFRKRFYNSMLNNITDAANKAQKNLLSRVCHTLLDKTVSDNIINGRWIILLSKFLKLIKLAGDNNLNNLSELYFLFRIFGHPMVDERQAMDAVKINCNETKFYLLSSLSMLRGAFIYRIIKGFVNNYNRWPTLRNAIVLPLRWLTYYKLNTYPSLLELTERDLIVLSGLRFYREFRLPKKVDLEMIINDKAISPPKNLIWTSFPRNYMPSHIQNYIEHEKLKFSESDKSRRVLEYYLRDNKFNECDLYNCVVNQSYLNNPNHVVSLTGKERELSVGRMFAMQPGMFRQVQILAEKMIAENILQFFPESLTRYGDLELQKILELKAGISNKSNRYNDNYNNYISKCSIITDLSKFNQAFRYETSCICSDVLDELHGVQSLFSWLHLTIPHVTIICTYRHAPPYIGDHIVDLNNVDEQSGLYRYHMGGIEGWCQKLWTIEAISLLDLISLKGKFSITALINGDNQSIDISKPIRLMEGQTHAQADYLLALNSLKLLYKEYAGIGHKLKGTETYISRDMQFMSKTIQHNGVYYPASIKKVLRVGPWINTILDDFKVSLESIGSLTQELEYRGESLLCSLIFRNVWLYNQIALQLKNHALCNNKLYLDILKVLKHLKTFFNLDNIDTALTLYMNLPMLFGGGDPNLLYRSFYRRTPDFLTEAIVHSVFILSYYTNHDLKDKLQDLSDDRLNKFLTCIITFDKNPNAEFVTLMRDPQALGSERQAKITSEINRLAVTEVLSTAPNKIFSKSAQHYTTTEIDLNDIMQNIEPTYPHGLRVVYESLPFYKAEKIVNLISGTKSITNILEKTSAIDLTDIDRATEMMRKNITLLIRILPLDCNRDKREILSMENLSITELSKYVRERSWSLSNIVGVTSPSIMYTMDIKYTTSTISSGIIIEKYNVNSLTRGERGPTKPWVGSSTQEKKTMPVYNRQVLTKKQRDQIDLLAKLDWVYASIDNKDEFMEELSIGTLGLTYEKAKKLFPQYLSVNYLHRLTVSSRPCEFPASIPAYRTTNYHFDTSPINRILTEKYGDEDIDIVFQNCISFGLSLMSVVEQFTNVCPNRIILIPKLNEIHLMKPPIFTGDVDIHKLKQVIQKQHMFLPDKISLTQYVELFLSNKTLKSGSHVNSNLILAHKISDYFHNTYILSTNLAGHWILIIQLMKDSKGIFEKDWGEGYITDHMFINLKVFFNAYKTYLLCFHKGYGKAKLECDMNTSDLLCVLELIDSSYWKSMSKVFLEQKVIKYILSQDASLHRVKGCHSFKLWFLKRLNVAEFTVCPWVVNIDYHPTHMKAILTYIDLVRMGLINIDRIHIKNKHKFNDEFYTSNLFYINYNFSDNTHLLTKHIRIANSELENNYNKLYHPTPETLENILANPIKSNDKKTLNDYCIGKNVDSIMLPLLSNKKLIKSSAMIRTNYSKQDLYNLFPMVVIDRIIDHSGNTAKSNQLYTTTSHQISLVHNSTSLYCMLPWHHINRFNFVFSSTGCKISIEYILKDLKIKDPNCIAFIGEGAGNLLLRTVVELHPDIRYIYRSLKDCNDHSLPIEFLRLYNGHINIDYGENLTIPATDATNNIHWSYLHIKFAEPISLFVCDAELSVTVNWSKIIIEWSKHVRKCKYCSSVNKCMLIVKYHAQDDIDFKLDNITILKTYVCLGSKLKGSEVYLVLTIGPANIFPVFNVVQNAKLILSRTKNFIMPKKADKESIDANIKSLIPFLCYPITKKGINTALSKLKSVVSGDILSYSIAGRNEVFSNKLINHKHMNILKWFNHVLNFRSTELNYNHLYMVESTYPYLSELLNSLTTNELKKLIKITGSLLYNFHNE
Sequence of VSV polymerase (L-P1-106) (P03523 whole entry, looked up): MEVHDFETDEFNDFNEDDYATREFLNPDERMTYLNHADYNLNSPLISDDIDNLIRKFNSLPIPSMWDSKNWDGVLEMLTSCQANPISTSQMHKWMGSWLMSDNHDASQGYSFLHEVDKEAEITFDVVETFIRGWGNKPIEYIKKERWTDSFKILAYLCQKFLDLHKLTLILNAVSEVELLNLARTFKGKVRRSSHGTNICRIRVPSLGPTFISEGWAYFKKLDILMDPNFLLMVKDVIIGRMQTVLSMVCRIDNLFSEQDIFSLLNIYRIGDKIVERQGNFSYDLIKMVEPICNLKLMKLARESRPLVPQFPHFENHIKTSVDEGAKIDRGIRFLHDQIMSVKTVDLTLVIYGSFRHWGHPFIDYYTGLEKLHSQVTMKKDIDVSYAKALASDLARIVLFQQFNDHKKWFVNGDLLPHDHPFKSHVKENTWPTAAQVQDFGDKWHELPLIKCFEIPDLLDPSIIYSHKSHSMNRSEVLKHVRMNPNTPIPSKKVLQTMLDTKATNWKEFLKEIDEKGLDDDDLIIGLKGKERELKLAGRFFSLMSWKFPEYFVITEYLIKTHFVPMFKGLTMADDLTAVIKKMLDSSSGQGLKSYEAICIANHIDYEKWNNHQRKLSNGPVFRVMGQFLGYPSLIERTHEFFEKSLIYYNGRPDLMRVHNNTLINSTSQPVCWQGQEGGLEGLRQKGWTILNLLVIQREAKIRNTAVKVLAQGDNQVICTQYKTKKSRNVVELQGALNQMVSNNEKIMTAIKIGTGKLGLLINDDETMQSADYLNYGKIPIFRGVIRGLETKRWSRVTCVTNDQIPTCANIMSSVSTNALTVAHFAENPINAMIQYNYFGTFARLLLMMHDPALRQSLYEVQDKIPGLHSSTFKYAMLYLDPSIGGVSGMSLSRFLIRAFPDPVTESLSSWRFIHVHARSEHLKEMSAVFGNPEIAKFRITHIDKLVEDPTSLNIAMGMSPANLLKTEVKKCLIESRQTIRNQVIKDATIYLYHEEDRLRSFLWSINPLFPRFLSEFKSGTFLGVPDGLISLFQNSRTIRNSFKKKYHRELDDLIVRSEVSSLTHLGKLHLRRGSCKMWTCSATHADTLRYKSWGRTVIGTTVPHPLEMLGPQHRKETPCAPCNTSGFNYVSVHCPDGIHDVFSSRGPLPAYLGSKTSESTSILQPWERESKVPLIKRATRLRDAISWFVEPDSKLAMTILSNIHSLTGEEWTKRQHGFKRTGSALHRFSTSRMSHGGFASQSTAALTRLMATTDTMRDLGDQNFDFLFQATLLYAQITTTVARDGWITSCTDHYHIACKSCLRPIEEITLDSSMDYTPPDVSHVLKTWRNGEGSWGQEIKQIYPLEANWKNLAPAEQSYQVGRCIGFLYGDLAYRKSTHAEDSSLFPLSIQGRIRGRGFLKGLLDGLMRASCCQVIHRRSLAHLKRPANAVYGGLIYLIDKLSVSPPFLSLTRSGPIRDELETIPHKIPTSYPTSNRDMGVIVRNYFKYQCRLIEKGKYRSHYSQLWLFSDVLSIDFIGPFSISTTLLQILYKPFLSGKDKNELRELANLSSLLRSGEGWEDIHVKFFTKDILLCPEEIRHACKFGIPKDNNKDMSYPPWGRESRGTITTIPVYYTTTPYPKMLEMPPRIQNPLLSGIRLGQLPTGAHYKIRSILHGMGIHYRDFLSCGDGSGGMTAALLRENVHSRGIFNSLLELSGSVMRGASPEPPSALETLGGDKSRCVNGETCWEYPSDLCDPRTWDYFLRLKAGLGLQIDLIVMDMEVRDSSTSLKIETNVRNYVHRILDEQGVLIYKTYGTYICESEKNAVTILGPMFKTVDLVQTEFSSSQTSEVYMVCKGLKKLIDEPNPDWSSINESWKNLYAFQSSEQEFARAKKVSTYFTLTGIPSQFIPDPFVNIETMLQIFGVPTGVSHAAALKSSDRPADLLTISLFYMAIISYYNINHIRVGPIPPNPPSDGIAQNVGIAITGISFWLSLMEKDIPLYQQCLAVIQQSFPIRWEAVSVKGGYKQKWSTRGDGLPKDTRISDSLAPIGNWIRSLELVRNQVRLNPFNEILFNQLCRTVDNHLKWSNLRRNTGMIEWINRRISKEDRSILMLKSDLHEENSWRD

SMILES	inhibition of RSV polymerase in the in vitro assay (in words) ([1]; 1 mM, FIG. 2)	inhibition of RNA synthesis activity of NiV polymerase [2]	inhibition of RNA synthesis activity of VSV polymerase [3]	inhibition of RNA synthesis activity of SARS-COV2 polymerase [4]	inhibition of RNA synthesis activity of VSBV polymerase [5]	impact on the RSV polymerase activity in time course ([1]; 0, 25 and 50 μM, FIG. 5A)	activity of RSV polymerase in time course at 50 μM ([1]; 50 μM versus 0 and 25 μM, FIG. 5A)	RSV polymerase activity retained relative to the control group ([1]; 1 mM small molecule in 10% DMSO, 10% DMSO negative control, FIG. 2) [%]	de novo RNA synthesis activity of RSV polymerase, rank among the tested molecules ([1]; 1 mM, FIG. 3A, compared with 10 other molecules)	primer-based RNA synthesis activity of RSV polymerase, rank among the tested molecules [6]
CN1C(N)=NC(C)(c2cc(NC(=O)c3ccc(F)cn3)ccc2F)CS1(=O)=O (stereo not drawn) [Verubecestat, N-(3-(3-amino-2,5-dimethyl-1,1-dioxido-5,6-dihydro-2H-1,2,4-thiadiazin-5-yl)-4-fluorophenyl)-5-fluoropicolinamide]	showed inhibition	–	–	–	–	–	–	–	–	–
Cc1ccc(-n2[nH]c(C)c(N=Nc3cccc(-c4cccc(-c5nnn[nH]5)c4)c3O)c2=O)cc1C [Totrombopag, 2-(3,4-dimethylphenyl)-4-((2-hydroxy-3′-(1H-tetrazol-5-yl)-[1,1′-biphenyl]-3-yl)diazenyl)-5-methyl-1,2-dihydro-3H-pyrazol-3-one]	–	inhibit	inhibit	inhibit	inhibit	–	–	–	–	–
CCCCCOc1ccc(-c2cc(-c3ccc(C(=O)N[C@H]4C[C@@H](O)[C@@H](O)NC(=O)[C@@H]5[C@@H](O)[C@@H](C)CN5C(=O)[C@H]([C@H](O)CC(N)=O)NC(=O)[C@H]([C@H](O)[C@@H](O)c5ccc(O)c(OS(=O)(=O)O)c5)NC(=O)[C@@H]5C[C@@H](O)CN5C(=O)[C@H]([C@@H](C)O)NC4=O)cc3)no2)cc1 [Micafungin, 5-(2-(20-(3-amino-1-hydroxy-3-oxopropyl)-2,11,12,15-tetrahydroxy-6-(1-hydroxyethyl)-16-methyl-5,8,14,19,22,25-hexaoxo-9-(4-(5-(4-(pentyloxy)phenyl)isoxazol-3-yl)benzamido)tetracosahydro-1H-dipyrrolo[2,1-c: 2′,1′-1][1,4,7,10,13,16]hexaazacyclohenicosin-23-yl)-1,2-dihydroxyethyl)-2-hydroxyphenyl hydrogen sulfate] (X1-[Orn(4R-OH,5R-OH)]T[Hyp][hTyr(3S-OH,4S-OH,3'-OSO3H)][Gln(3R-OH)][Pro(3S-OH,4S-Me)]; lactam 1-C)	significant inhibitory activity	inhibit	inhibit	inhibit	inhibit	time and concentration dependent	lowest at all time points	29.6	lowest	best inhibitors
